# Reference: patent US20160303156A1 (priority 2014, published 2016)
# Structures can show the parent of a compound that is named as a salt. Marks after values point to notes of the source that are not given here.
# Assays:
# [1] = Effect of naringin in combination with other drugs; conditions: used in combination with naringin
# [2] = tested on: citric acid induced cough; test: Inhibition on citric acid induced cough in guinea pig; type: in vivo, Hartley guinea pigs
# Procedure: 1.1 Test animals: qualified Hartley guinea pigs, weight 250-300 g, female:male 1:1, available from Guangdong Medical Laboratory Animal Center.
# 1.3 Instrument: YLS-8A cough and asthma inducing instrument (a product available from Equipment Station of Shandong Academy of Medical Sciences).
# The guinea pigs in each group were administered by oral gavage at a dosage of 0.5 ml/100 g of body weight, and equal volume of saline was given to the animals in the blank control group. 1 h after administration by oral gavage, the animals received spray of citric acid for 7 min. After the spray was completed, the cough counts were observed and recorded in ten minutes from the start of the spray (the typical cough is loud and clear and often accompanied by a forward rush).
# [3] = tested on: excretion of phenol red (secretory function of the respiratory tract); test: Effect on excretion of phenol red in mice; type: in vivo, Kunming mice; conditions: for Phenol red concentration: oral gavage 2 days, trachea wash 30 min after i.p. phenol red, n = 10
# Procedure: Kunming mice, female:male 1:1, weight 30-40 g, available from Guangdong Medical Laboratory Animal Center. […] Hitachi 3010 UV and visible spectrophotometer. […] After 30 min, the mice were sacrificed, and the trachea was detached. A section of the trachea from the thyroid cartilage to a branch of the trachea was excised, and placed in a test tube containing 3 ml of saline, to which 0.1 ml of a 15% sodium bicarbonate solution was then added. After centrifugation, the supernatant was taken and measured for the OD value at 546 nm. The phenol red content was calculated from a phenol red standard curve.
# [4] = tested on: ovalbumin induced atopic cough (cough variant asthma); test: Capsaicin induced cough in ovalbumin induced atopic cough (cough variant asthma) model; type: in vivo, Hartley guinea pig; conditions: ovalbumin-challenged guinea pigs, 7 days dosing, 50 μmol/L capsaicin 1 hr after last dose, coughs in 10 min, n = 10
# Procedure: (§1) 2.2 Modeling: except for the normal control group, the guinea pigs in the remaining groups were challenged by intraperitoneally injecting cyclophosphamide at a dosage of 30 mg/kg at day 1, intraperitoneally injecting 1 mL of a suspension containing 2 mg ovalbumin and 100 mg aluminium hydroxide at day 3, and injecting 1 mL of a suspension containing 0.01 mg ovalbumin and 100 mg aluminium hydroxide after 3 weeks. The guinea pigs in the normal control group were intraperitoneally injected with 1 mL of saline. After 3 weeks, all the animals for modeling were challenged by nebulization of a 1% ovalbumin solution for 90 s, and the animals in the normal control group inhaled saline for 90 s by nebulization.
# (§2) The cough of guinea pig were counted as follows. 1 hr after the last dose, the guinea pigs were placed in a Buxco cough recorder, and induced to cough by using 1 mL of 50 μmol/L capsaicin, and the cough counts in 10 min (including the nebulization time) were recorded.
# [5] = tested on: acemecholine (MeCh) induced airway hyperresponsiveness; test: Airway responsiveness (Penh) under MeCh challenge in ovalbumin cough variant asthma model; type: in vivo, Hartley guinea pig; conditions: Penh % relative to normal saline challenge, n = 10
# Procedure: as §1, §2
# 2.4 Determination of airway responsiveness (AR) in guinea pig: 24 hrs after cough determination, the enhanced pause (Penh) of guinea pig was determined in the Buxco whole body plethysmograph, and the variation in Penh after challenge by nebulization of acemecholine (MeCh) was measured.
# The acemecholine (MeCh) concentrations used for challenging were respectively, from low to high, 100 mg/L, 200 mg/L, 400 mg/L, 800 mg/L, and 1600 mg/L. The average Penh upon challenge with each level of MeCh was recorded, and converted into percentages (Penh %) relative to the Penh value upon challenge with normal saline (NS), which was used as an evaluation criterion for AR.
# [6] = tested on: inflammatory cells in bronchial alveolar lavage fluid; test: Differential leukocyte counts in bronchial alveolar lavage fluid, ovalbumin cough variant asthma model; type: in vivo, Hartley guinea pig; conditions: BALF
# Procedure: as §1, §2
# 2.5 Bronchoalveolar lavage and differential leukocyte counts in bronchial alveolar lavage fluid (BALF): After AR determination, the guinea pigs were anesthetized with 30 mg/kg of pentobarbital sodium. Then, the neck skin was cut, and a median incision was made on the trachea, in which a tracheal cannula was inserted. Bronchoalveolar lavage was performed with 5 mL of saline. This was repeated 3 times, and the bronchial alveolar lavage fluid was collected. All the bronchial alveolar lavage fluid was centrifuged at 4° C. and 1500 rpm for 10 min, and the supernatant was stored at −80° C. for later use.
compound,measurement,setting,value
CN(C)CCC(c1ccc(Cl)cc1)c1ccccn1 (centres unmarked) [chlorpheniramine maleate],Synergistic effect in combination with naringin,[1],no synergistic effect
CCOC(=O)N1CCC(=C2c3ccc(Cl)cc3CCc3cccnc32)CC1 [loratadine],Synergistic effect in combination with naringin,[1],no synergistic effect
"C[C@@H]1O[C@@H](O[C@H]2[C@H](Oc3cc(O)c4c(c3)O[C@H](c3ccc(O)cc3)CC4=O)O[C@H](CO)[C@@H](O)[C@@H]2O)[C@H](O)[C@H](O)[C@H]1O [Naringin, naringin]",Cough relieving effect (in words),[2]; citric acid induced cough,obvious cough relieving effect
same,Cough count,"[2]; oral gavage, citric acid spray 7 min 1 h after dosing, coughs in ten minutes, n = 8",22.4 ± 3.7 ^
same,Effect on excretion of phenol red / sputum reducing effect (in words),[3],obviously enhance the excretion of phenol red
same,Phenol red concentration,[3],1.64 ± 0.67 ^ μg/ml
same,Cough counts,[4],12.9 ± 4.3 ^
same,Airway responsiveness under challenge with MeCh,[5]; MeCh 100 mg/L,276 ± 69
same,Airway responsiveness under challenge with MeCh,[5]; MeCh 200 mg/L,783 ± 147
same,Airway responsiveness under challenge with MeCh,[5]; MeCh 400 mg/L,857 ± 108
same,Airway responsiveness under challenge with MeCh,[5]; MeCh 800 mg/L,1636 ± 169
same,Airway responsiveness under challenge with MeCh,[5]; MeCh 1600 mg/L,2749 ± 253
same,"Reduction of total leukocyte, lymphocyte, neutrophil and eosinophil counts (in words)",[6],significantly reduce
same,Lymphocyte counts,"[6]; guinea pigs, n = 10",21.5 ± 3.7** 10^7/L
same,Neutrophil counts,"[6]; guinea pigs, n = 10",30.1 ± 6.5** 10^7/L
same,Total leukocyte counts,"[6]; guinea pigs, n = 10",135.5 ± 28.6** 10^7/L
CN1CCCC(n2nc(Cc3ccc(Cl)cc3)c3ccccc3c2=O)CC1 (centres unmarked) [azelastine hydrochloride],Synergistic effect in combination with naringin,[1],no synergistic effect
Clc1ccc2c(c1)CCc1cccnc1C2=C1CCNCC1 [desloratadine],Synergistic effect in combination with naringin,[1],no synergistic effect
dimenhydrinate hydrochloride,Synergistic effect in combination with naringin,[1],no synergistic effect
theohydramine hydrochloride,Synergistic effect in combination with naringin,[1],no synergistic effect
"Nc1c(Br)cc(Br)cc1CN[C@H]1CC[C@H](O)CC1 [Ambroxol, ambroxol]",Phenol red concentration,[3],1.55 ± 0.46 ^ μg/ml
NC1=NCC2c3ccccc3Cc3ccccc3N12 (centres unmarked) [epinastine hydrochloride],Synergistic effect in combination with naringin,[1],no synergistic effect
CN(c1nccc(=O)[nH]1)C1CCN(c2nc3ccccc3n2Cc2ccc(F)cc2)CC1 [mizolastine],Synergistic effect in combination with naringin,[1],no synergistic effect
